{"source": "paper PMC11092803", "about": "“Heme allocation in eukaryotic cells relies on mitochondrial heme export through FLVCR1b to cytosolic GAPDH” (Research Square, 2024)", "biological_target": "T1, IDO1 (Homo sapiens, UniProt P14902)", "T1 construct": "full-length with FLAG tag, expressed in HEK293T cells; immunoprecipitated for 14C-heme count", "T1 sequence (P14902 whole entry)": "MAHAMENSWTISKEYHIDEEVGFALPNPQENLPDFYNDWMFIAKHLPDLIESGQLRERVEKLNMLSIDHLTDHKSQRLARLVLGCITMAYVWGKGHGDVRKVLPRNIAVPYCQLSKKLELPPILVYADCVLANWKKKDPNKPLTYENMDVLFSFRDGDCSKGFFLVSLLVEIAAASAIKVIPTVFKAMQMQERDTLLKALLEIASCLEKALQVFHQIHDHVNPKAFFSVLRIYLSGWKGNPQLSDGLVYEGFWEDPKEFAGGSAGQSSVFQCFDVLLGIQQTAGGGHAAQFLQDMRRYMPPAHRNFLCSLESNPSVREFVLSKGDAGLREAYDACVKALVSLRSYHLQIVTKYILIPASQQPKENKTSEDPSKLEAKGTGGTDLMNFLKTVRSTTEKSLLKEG", "experiment": "L-kynurenine in culture medium, p-dimethylaminobenzaldehyde colorimetry at […] nm", "type": "cell-based", "settings": "intact HEK293T cells expressing IDO1; L-Trp 2 mM, with or without δ-ALA and ferric citrate, 5 h"}
{"compound": "N[C@@H](Cc1c[nH]c2ccccc12)C(=O)O", "note": "[L-Trp]", "values": [{"measurement": "L-kynurenine in culture medium, p-dimethylaminobenzaldehyde colorimetry at 492 n", "result": "IDO1 activity was determined by colorimetric measure of the accumulated L-Kynurenine product"}]}
